Patent US20150209315A1 (Cumberland Pharmaceuticals, priority 2009, published 2015)

Assays:
patients = experiment: Safety in all clinical studies conducted to date; type: in vivo, human; details: for postoperative GI bleeding or renal complications: up to 5 days of treatment, abdominal and orthopedic surgical procedures
[1] = system: post-operative adult patients; experiment: Example 1: patient self-assessment of pain, VAS with movement; type: in vivo, human; parameters: key to VAS Score measured with Movement (median): VAS 0-10: 0 = no pain, 10 = intense pain; details: 400 mg
Description: Pain was measured by the patient's self-assessment using a Visual Analog Scale (VAS) from 0-10 with 0 being no pain and 10 being intense pain. This was measured both at rest and with movement. […] […] To account for the missing pain assessments, two missing value approaches as described in the statistical analysis plan were used to impute values. To determine the difference in overall pain at differing time-points, the area under the VAS pain curve during the first 24 hours, between 6 and 24 hours and between 12 and 24 hours were analyzed.

CC(C)Cc1ccc(C(C)C(=O)O)cc1 (stereo not shown) [Ibuprofen, 2-(4-isobutylphenyl) propionic acid]
impact on key metabolic and hematologic parameters (patients; all clinical studies conducted to date): no impact
patients with at least one morphine side effect vs placebo (patients; clinical trials, postoperative): significantly fewer patients
postoperative GI bleeding or renal complications (patients; listed as IV Ibuprofen): No postoperative GI bleeding or renal complications were seen
postoperative GI bleeding or renal complications (patients; listed as intravenous ibuprofen): No bleeding or renal toxicity was reported
adverse event profile (patients; vs placebo): comparable to placebo
VAS Score measured with Movement (median) ([1]; EEP, 1-Hour): 7.5
VAS Score measured with Movement, % Reduction vs Placebo ([1]; EEP, 1-Hour): 6.2%
VAS Score measured with Movement (median) ([1]; EEP, 2-Hour): 7.2
VAS Score measured with Movement, % Reduction vs Placebo ([1]; EEP, 2-Hour): −1.4%
VAS Score measured with Movement (median) ([1]; EEP, 3-Hour): 6.2
VAS Score measured with Movement, % Reduction vs Placebo ([1]; EEP, 3-Hour): −3.3%
VAS Score measured with Movement (median) ([1]; EEP, 6-Hour): 5.7
VAS Score measured with Movement, % Reduction vs Placebo ([1]; EEP, 6-Hour): −14.0%
VAS Score measured with Movement (median) ([1]; EEP, 9-Hour): 4.8
VAS Score measured with Movement, % Reduction vs Placebo ([1]; EEP, 9-Hour): 4.0%
VAS Score measured with Movement (median) ([1]; EEP, 12-Hour): 4.5
VAS Score measured with Movement, % Reduction vs Placebo ([1]; EEP, 12-Hour): 10.0%
VAS Score measured with Movement (median) ([1]; EEP, 15-Hour): 4.0
VAS Score measured with Movement, % Reduction vs Placebo ([1]; EEP, 15-Hour): 20.0%
VAS Score measured with Movement (median) ([1]; EEP, 18-Hour): 4.3
VAS Score measured with Movement, % Reduction vs Placebo ([1]; EEP, 18-Hour): 14.0%
VAS Score measured with Movement (median) ([1]; EEP, 21-Hour): 4.0
VAS Score measured with Movement, % Reduction vs Placebo ([1]; EEP, 21-Hour): 20.0%
VAS Score measured with Movement (median) ([1]; EEP, 24-Hour): 5.0
VAS Score measured with Movement, % Reduction vs Placebo ([1]; EEP, 24-Hour): −13.6%
VAS Score measured with Movement (median) ([1]; EEP, 27-Hour): 4.6
VAS Score measured with Movement, % Reduction vs Placebo ([1]; EEP, 27-Hour): −2.2%
VAS Score measured with Movement (median) ([1]; EEP, 30-Hour): 4.0
VAS Score measured with Movement, % Reduction vs Placebo ([1]; EEP, 30-Hour): 2.4%
VAS Score measured with Movement (median) ([1]; EEP, 33-Hour): 3.9
VAS Score measured with Movement, % Reduction vs Placebo ([1]; EEP, 33-Hour): −2.6%
VAS Score measured with Movement (median) ([1]; EEP, 36-Hour): 3.6
VAS Score measured with Movement, % Reduction vs Placebo ([1]; EEP, 36-Hour): 7.7%
VAS Score measured with Movement (median) ([1]; EEP, 39-Hour): 3.1
VAS Score measured with Movement, % Reduction vs Placebo ([1]; EEP, 39-Hour): 8.8%
VAS Score measured with Movement (median) ([1]; EEP, 42-Hour): 3.3
VAS Score measured with Movement, % Reduction vs Placebo ([1]; EEP, 42-Hour): 5.7%
VAS Score measured with Movement (median) ([1]; EEP, 45 Hour): 3.3
VAS Score measured with Movement, % Reduction vs Placebo ([1]; EEP, 45 Hour): −6.5%
VAS Score measured with Movement (median) ([1]; EEP, 48-Hour): 3.2
VAS Score measured with Movement, % Reduction vs Placebo ([1]; EEP, 48-Hour): −33.3%
VAS Score measured with Movement (median) ([1]; ITT, 1-Hour): 7.5
VAS Score measured with Movement, % Reduction vs Placebo ([1]; ITT, 1-Hour): 6.2%
VAS Score measured with Movement (median) ([1]; ITT, 2-Hour): 7.4
VAS Score measured with Movement, % Reduction vs Placebo ([1]; ITT, 2-Hour): −1.4%
VAS Score measured with Movement (median) ([1]; ITT, 3-Hour): 6.3
VAS Score measured with Movement, % Reduction vs Placebo ([1]; ITT, 3-Hour): 0.0%
VAS Score measured with Movement (median) ([1]; ITT, 6-Hour): 5.7
VAS Score measured with Movement, % Reduction vs Placebo ([1]; ITT, 6-Hour): 0.0%
VAS Score measured with Movement (median) ([1]; ITT, 9-Hour): 4.7
VAS Score measured with Movement, % Reduction vs Placebo ([1]; ITT, 9-Hour): 9.6%
VAS Score measured with Movement (median) ([1]; ITT, 12-Hour): 4.5
VAS Score measured with Movement, % Reduction vs Placebo ([1]; ITT, 12-Hour): 10.0%
VAS Score measured with Movement (median) ([1]; ITT, 15-Hour): 3.9
VAS Score measured with Movement, % Reduction vs Placebo ([1]; ITT, 15-Hour): 22.0%
VAS Score measured with Movement (median) ([1]; ITT, 18-Hour): 4.3
VAS Score measured with Movement, % Reduction vs Placebo ([1]; ITT, 18-Hour): 14.0%
VAS Score measured with Movement (median) ([1]; ITT, 21-Hour): 4.1
VAS Score measured with Movement, % Reduction vs Placebo ([1]; ITT, 21-Hour): 16.3%
VAS Score measured with Movement (median) ([1]; ITT, 24-Hour): 4.6
VAS Score measured with Movement, % Reduction vs Placebo ([1]; ITT, 24-Hour): −2.2%
VAS Score measured with Movement (median) ([1]; ITT, 27 Hour): 4.6
VAS Score measured with Movement, % Reduction vs Placebo ([1]; ITT, 27 Hour): −4.5%
VAS Score measured with Movement (median) ([1]; ITT, 30-Hour): 4.0
VAS Score measured with Movement, % Reduction vs Placebo ([1]; ITT, 30-Hour): 0.0%
VAS Score measured with Movement (median) ([1]; ITT, 33-Hour): 3.8
VAS Score measured with Movement, % Reduction vs Placebo ([1]; ITT, 33-Hour): 0.0%
VAS Score measured with Movement (median) ([1]; ITT, 36-Hour): 3.6
VAS Score measured with Movement, % Reduction vs Placebo ([1]; ITT, 36-Hour): 10.0%
VAS Score measured with Movement (median) ([1]; ITT, 39-Hour): 3.1
